One data set concerns the target CDK9/cyclin T (Homo sapiens, UniProt P50750). The data set can be described thus: In vitro luminescent CDK9 kinase assay (Kinase-Glo MAX). Type of data set: biochemical. To be noted: for reduction in CDK9 inhibitory activity: compared with compound 25. The protocol: In vitro luminescent CDK9 kinase assay was performed as reported previously using Kinase- Glo® MAX as a detection reagent. Briefly, 5 μL of each inhibitor in concentrations ranging from 10 μM to 1 nM (10 μM, 1 μM, 0.1 μM, 0.01 μM, and 0.001 μM) and 10 μL of enzyme substrate were mixed in 20 μL of kinase assay buffer (obtained from BPS Bioscience, catalog #79334) at room temperature. Then 20 μL of 5 ng/μL CDK9/cyclin T was added to the mixture to initiate the reaction. After 45 min, 50 μL of Kinase-Glo® Max reagent was added, and the resulting mixture was incubated for 15 min at room temperature. The chemiluminescence was measured microplate reader, and IC50 values were calculated using Prism 8.0 (GraphPad Software, San Diego, CA, USA).
A general note: Kinase-Glo reads ATP consumption through a luciferase reaction.

A further data set concerns MCF-7 cell line. Put plainly: MTT metabolic (antiproliferative) assay. The conditions noted are these: read-out: Cytotoxicity IC50, MCF-7, 48 h, mean ± SD.
For the next data set, the system named is CDK9. Also on record: method as in PMID 33142413, PMID 24150998. To be noted: Figure 2; cited from earlier work.
[1] abbreviates: CDK9 IC50 as used for LE and LLE, read-out: IC50 (CDK9, Table 4).
The mark [2] stands for this setting: negative log of the CDK9 IC50, read-out: pIC50 (converted).

For orientation: melting point means the temperature of the solid-liquid transition.

Structures are written as SMILES. Like-named read-outs stand apart in the source and are kept apart here.

Chain of CDK9/cyclin T (P50750 whole entry): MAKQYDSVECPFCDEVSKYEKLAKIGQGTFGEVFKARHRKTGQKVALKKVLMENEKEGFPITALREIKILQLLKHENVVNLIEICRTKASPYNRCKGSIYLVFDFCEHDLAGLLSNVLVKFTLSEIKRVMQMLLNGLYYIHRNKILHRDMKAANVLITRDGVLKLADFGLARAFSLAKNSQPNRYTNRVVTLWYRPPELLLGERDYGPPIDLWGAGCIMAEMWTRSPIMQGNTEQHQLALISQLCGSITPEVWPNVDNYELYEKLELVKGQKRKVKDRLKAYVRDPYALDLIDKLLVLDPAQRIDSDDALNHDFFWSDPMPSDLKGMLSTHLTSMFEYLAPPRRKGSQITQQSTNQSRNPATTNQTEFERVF
Chain of CDK9/cyclin T (O60563 whole entry partner): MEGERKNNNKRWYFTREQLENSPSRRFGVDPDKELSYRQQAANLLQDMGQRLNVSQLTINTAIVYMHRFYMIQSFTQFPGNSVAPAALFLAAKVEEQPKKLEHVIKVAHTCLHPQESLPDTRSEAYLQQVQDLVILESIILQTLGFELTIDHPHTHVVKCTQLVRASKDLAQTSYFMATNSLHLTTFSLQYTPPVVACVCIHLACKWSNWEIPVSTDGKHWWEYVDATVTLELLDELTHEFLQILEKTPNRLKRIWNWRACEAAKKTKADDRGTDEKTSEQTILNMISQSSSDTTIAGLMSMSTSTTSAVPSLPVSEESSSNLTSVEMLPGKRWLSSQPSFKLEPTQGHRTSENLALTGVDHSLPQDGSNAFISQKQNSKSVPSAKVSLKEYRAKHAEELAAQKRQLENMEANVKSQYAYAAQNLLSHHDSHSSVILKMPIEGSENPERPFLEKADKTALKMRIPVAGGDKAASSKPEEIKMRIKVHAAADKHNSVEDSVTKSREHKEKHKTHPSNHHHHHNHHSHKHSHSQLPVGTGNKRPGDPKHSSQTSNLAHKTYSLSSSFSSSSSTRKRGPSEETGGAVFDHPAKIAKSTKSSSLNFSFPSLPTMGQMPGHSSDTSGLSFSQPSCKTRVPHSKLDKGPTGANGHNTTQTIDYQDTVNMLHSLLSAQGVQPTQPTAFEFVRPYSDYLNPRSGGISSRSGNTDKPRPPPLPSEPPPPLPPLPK
Procedure for MCF-7 cell line: The antiproliferative activity of the twenty-seven compounds was evaluated by 3-(4,5-dimethylthiazol-2-yl)-2,5-diphenyltetrazolium bromide (MTT) metabolic assay against the MCF-7 cell line, according to a previous method [26].

Regarding `COc1ccc(NC(=O)CSc2nc3ccccc3c(=O)n2CCc2ccc(S(N)(=O)=O)cc2)cc1` [Compound 6], the IC50 on CDK9/cyclin T (setting [1]) turned out to be 0.463 µM; on CDK9/cyclin T (mean ± SD, read-out: CDK9 IC50) it was 0.463 ± 0.007 µM; in the data set on MCF-7 cell line, 4.65 ± 1.38 µM.

In the case of `CC(=O)c1ccc(NC(=O)CSc2nc3ccccc3c(=O)n2CCc2ccc(S(N)(=O)=O)cc2)cc1` [Compound 5], the IC50 at CDK9/cyclin T (setting [1]) was found to be 0.829 µM; at CDK9/cyclin T (mean ± SD, read-out: CDK9 IC50), 0.829 ± 0.014 µM; in the data set on MCF-7 cell line it was 0.18 ± 0.09 µM.

On to `COc1ccc(CNC(=O)CSc2nc3ccccc3c(=O)n2CCc2ccc(S(N)(=O)=O)cc2)cc1` [Compound 13], for which the IC50 came to 0.334 µM at CDK9/cyclin T (setting [1]); 0.334 ± 0.006 µM at CDK9/cyclin T (mean ± SD, read-out: CDK9 IC50); 0.84 ± 0.15 µM with MCF-7 cell line.

For `O=c1[nH]cnc2ccc(I)cc12` [Compound 17], the IC50 came out at 0.639 µM on CDK9/cyclin T (setting [1]); 0.639 ± 0.004 µM at CDK9/cyclin T (mean ± SD, read-out: CDK9 IC50); 3.88 ± 0.12 µM with MCF-7 cell line.

As to `CC(Sc1nc2ccccc2c(=O)n1CCc1ccc(S(N)(=O)=O)cc1)C(=O)Nc1ccccc1` (centres unmarked) [Compound 15], the IC50 at CDK9/cyclin T (setting [1]) came to 0.444 µM; at CDK9/cyclin T (mean ± SD, read-out: CDK9 IC50), 0.444 ± 0.007 µM; in the data set with MCF-7 cell line, 0.67 ± 0.18 µM.

On to `COc1cc(NC(=O)CSc2nc3ccccc3c(=O)n2CCc2ccc(S(N)(=O)=O)cc2)cc(OC)c1OC` [Compound 8], for which the IC50 turned out to be 0.501 µM on CDK9/cyclin T (setting [1]); 0.501 ± 0.009 µM on CDK9/cyclin T (mean ± SD, read-out: CDK9 IC50); 2.48 ± 0.32 µM with MCF-7 cell line.

With `NS(=O)(=O)c1ccc(CCn2c(SCC(=O)Nc3ccc(Br)cc3)nc3ccccc3c2=O)cc1` [Compound 9], the IC50 worked out at 0.131 µM at CDK9/cyclin T (setting [1]); 0.131 ± 0.002 µM at CDK9/cyclin T (mean ± SD, read-out: CDK9 IC50); 1.72 ± 0.26 µM in the data set with MCF-7 cell line.

For the compound `NS(=O)(=O)c1ccc(CCn2c(=S)[nH]c3ccccc3c2=O)cc1` [Compound 1, 2-Mercapto-3-(4-sulfamoylphenethyl)quinazolin-4-one], the IC50 amounted to 0.644 µM on CDK9/cyclin T (setting [1]); 0.644 ± 0.007 µM on CDK9/cyclin T (mean ± SD, read-out: CDK9 IC50); 0.65 ± 0.15 µM in the data set with MCF-7 cell line.

Take `Cc1ccc2nc(-c3cccc(Br)c3)oc(=O)c2c1` [Compound 24, 2-(3-Bromophenyl)-6-methyl-4H-benzo[d][1,3]oxazin-4-one]: the IC50 came out at 0.486 µM at CDK9/cyclin T (setting [1]); 0.486 ± 0.004 µM on CDK9/cyclin T (mean ± SD, read-out: CDK9 IC50); 10.4 ± 0.33 µM in the data set on MCF-7 cell line. The “reduction in CDK9 inhibitory activity” value at CDK9/cyclin T amounted to 3 fold.

With `COc1ccc(CNC(=O)CSc2nc3ccccc3c(=O)n2CCc2ccc(S(N)(=O)=O)cc2)cc1OC` [Compound 14], the IC50 turned out to be 0.229 µM on CDK9/cyclin T (setting [1]); 0.229 ± 0.004 µM at CDK9/cyclin T (mean ± SD, read-out: CDK9 IC50); 0.59 ± 0.1 µM in the data set on MCF-7 cell line.

For the compound `CC(Sc1nc2ccccc2c(=O)n1CCc1ccc(S(N)(=O)=O)cc1)C(=O)Nc1ccc(Cl)cc1` (centres unmarked) [Compound 16], the IC50 at CDK9/cyclin T (mean ± SD, read-out: CDK9 IC50) was 0.35 ± 0.006 µM; at CDK9/cyclin T (setting [2]) it was 0.347 µM; with MCF-7 cell line it was 0.73 ± 0.01 µM.

For the compound `NS(=O)(=O)c1ccc(CCn2c(SCC(=O)NCc3ccc(F)cc3)nc3ccccc3c2=O)cc1` [Compound 12], the IC50 on CDK9/cyclin T (setting [1]) was 0.218 µM; on CDK9/cyclin T (mean ± SD, read-out: CDK9 IC50), 0.218 ± 0.004 µM; in the data set with MCF-7 cell line it was 0.69 ± 0.23 µM.

Regarding `NS(=O)(=O)c1ccc(CCn2c(SCC(=O)Nc3ccc(F)cc3)nc3ccccc3c2=O)cc1` [Compound 11], the IC50 at CDK9/cyclin T (setting [1]) turned out to be 0.336 µM; on CDK9/cyclin T (mean ± SD, read-out: CDK9 IC50), 0.336 ± 0.005 µM; in the data set with MCF-7 cell line, 3.86 ± 0.78 µM.

Turning to `O=c1[nH]c(-c2ccc(Cl)cc2)nc2ccc([N+](=O)[O-])cc12` [Compound 20], the IC50 on CDK9/cyclin T (setting [1]) amounted to 0.434 µM; at CDK9/cyclin T (mean ± SD, read-out: CDK9 IC50), 0.434 ± 0.003 µM; in the data set on MCF-7 cell line it was 6.07 ± 0.19 µM. In addition, the “reduction in potency against CDK9” value on CDK9/cyclin T (compound 20 versus compound 19) came out at 1 fold.

Turning to `CCOc1ccc(NC(=O)CSc2nc3ccccc3c(=O)n2CCc2ccc(S(N)(=O)=O)cc2)cc1` [Compound 7], the IC50 at CDK9/cyclin T (setting [1]) turned out to be 0.115 µM; at CDK9/cyclin T (mean ± SD, read-out: CDK9 IC50), 0.115 ± 0.002 µM; with MCF-7 cell line, 1.57 ± 0.04 µM. Also, the “increase of CDK9 inhibitory activity” value on CDK9/cyclin T (compared to the hit compound 1) is on record as “around 6 fold”.

For `Cc1ccc2nc(-c3cccc(Br)c3)n(N)c(=O)c2c1` [Compound 27, 3-Amino-2-(3-bromophenyl)-6-methylquinazolin-4(3H)-one], the IC50 on CDK9/cyclin T (setting [1]) is 0.835 µM; on CDK9/cyclin T (mean ± SD, read-out: CDK9 IC50), 0.835 ± 0.006 µM; with MCF-7 cell line, 28.7 ± 0.92 µM. For the same compound, at CDK9/cyclin T, the “reduction in CDK9 inhibitory activity” value was “approximately 6 fold”.

Take `Cc1ccc(NC(=O)c2cccc(Br)c2)c(C(=O)O)c1` [Compound 23, 2-(3-Bromobenzamido)-5-methylbenzoic acid]: the melting point lay within 155 to 157 °C. For the same compound, the IC50 on CDK9/cyclin T (mean ± SD, read-out: CDK9 IC50) was 0.21 ± 0.003 µM. Further, the IC50 on CDK9/cyclin T (setting [2]) is 0.209 µM. Moreover, the IC50 in the data set on MCF-7 cell line is 11.5 ± 0.37 µM.

Regarding `Cc1ccc2nc(-c3cccc(Br)c3)[nH]c(=O)c2c1` [Compound 25, 2-(3-Bromophenyl)-6-methylquinazolin-4(3H)-one], the IC50 at CDK9/cyclin T (setting [1]) came to 0.142 µM; on CDK9/cyclin T (mean ± SD, read-out: CDK9 IC50), 0.142 ± 0.001 µM; in the data set with MCF-7 cell line, 16.8 ± 0.54 µM.

Turning to `NS(=O)(=O)c1ccc(CCn2c(SCc3ccccc3)nc3ccccc3c2=O)cc1` [VI], in the data set on CDK9, the IC50 was 67 µM.

On to `CN1CC[C@H](c2c(O)cc(O)c3c(=O)cc(-c4ccccc4Cl)oc23)[C@H](O)C1` [Flavopiridol, flavopiridol, reference compound], for which the IC50 in the data set with MCF-7 cell line came out at 0.04 ± 0.001 µM.

On to `O=c1[nH]c(-c2cccs2)nc2ccc(I)cc12` [Compound 18], for which the IC50 at CDK9/cyclin T (setting [1]) was determined as 0.296 µM; on CDK9/cyclin T (mean ± SD, read-out: CDK9 IC50), 0.296 ± 0.003 µM; with MCF-7 cell line, 21.4 ± 0.68 µM.

Regarding `NS(=O)(=O)c1ccc(CCn2c(SCC(=O)Nc3ccccc3)nc3ccccc3c2=O)cc1` [Compound 3], the IC50 on CDK9/cyclin T (setting [1]) turned out to be 0.421 µM; on CDK9/cyclin T (mean ± SD, read-out: CDK9 IC50), 0.421 ± 0.006 µM; with MCF-7 cell line it was 0.82 ± 0.08 µM.

With `Cc1ccc2nc(-c3cccc(Br)c3)n(O)c(=O)c2c1` [Compound 28, 2-(3-Bromophenyl)-3-hydroxy-6-methylquinazolin-4(3H)-one], the IC50 on CDK9/cyclin T (mean ± SD, read-out: CDK9 IC50) is 0.21 ± 0.002 µM; on CDK9/cyclin T (setting [2]) it was 0.209 µM; in the data set with MCF-7 cell line it was 6.27 ± 0.2 µM.

With `NC(=O)CSc1nc2ccccc2c(=O)n1CCc1ccc(S(N)(=O)=O)cc1` [Compound 2], the IC50 at CDK9/cyclin T (setting [1]) came to 0.454 µM; at CDK9/cyclin T (mean ± SD, read-out: CDK9 IC50), 0.454 ± 0.006 µM; in the data set on MCF-7 cell line, 2.31 ± 0.39 µM.

`Cc1ccc(-c2nc3ccc(Cl)cc3c(=O)[nH]2)cc1` [Compound 19]: the IC50 on CDK9/cyclin T (setting [1]) was 0.282 µM; on CDK9/cyclin T (mean ± SD, read-out: CDK9 IC50), 0.282 ± 0.003 µM; in the data set on MCF-7 cell line, 12.3 ± 0.39 µM.

In the case of `Cc1ccc2nc(-c3cccc(Br)c3)[nH]c(=S)c2c1` [Compound 26, 2-(3-Bromophenyl)-6-methylquinazoline-4(3H)-thione], the IC50 on CDK9/cyclin T (setting [1]) was 0.289 µM; on CDK9/cyclin T (mean ± SD, read-out: CDK9 IC50), 0.289 ± 0.002 µM; in the data set with MCF-7 cell line it was 5.21 ± 0.17 µM. Besides, the “reduction in CDK9 inhibitory activity” value on CDK9/cyclin T came out at 2 fold.

`NS(=O)(=O)c1ccc(CCn2c(SCC(=O)Nc3ccc(Cl)cc3)nc3ccccc3c2=O)cc1` [Compound 10]: the IC50 at CDK9/cyclin T (setting [1]) worked out at 0.193 µM; on CDK9/cyclin T (mean ± SD, read-out: CDK9 IC50) it was 0.193 ± 0.003 µM; in the data set with MCF-7 cell line, 1.04 ± 0.07 µM.

As for `Cc1ccc(NC(=O)CSc2nc3ccccc3c(=O)n2CCc2ccc(S(N)(=O)=O)cc2)cc1` [Compound 4], the IC50 at CDK9/cyclin T (setting [1]) was 0.788 µM; on CDK9/cyclin T (mean ± SD, read-out: CDK9 IC50), 0.788 ± 0.012 µM; in the data set with MCF-7 cell line, 0.16 ± 0.02 µM.

The values are drawn from article PMC9822073, “Synthesis, Cytotoxic Evaluation, and Structure-Activity Relationship of Substituted Quinazolinones as Cyclin-Dependent Kinase 9 Inhibitors” (Molecules, 2022).
